According to US8288410B2, “3-substituted quinolinium and 7H-indolo[2,3-c]quinolinium salts as new antiinfectives” (Florida Agricultural and Mechanical University, priority 2008, dated 2012):
Counter-ions that a name gives are not always drawn. Like-named read-outs stand apart in the source and are kept apart here. Values belong to the molecule of their own block, whether it stands above or below them.

How the values were obtained:
[1] = test system: Candida albicans ATTC 90028; assay: Antifungal susceptibility testing, Candida albicans; type: cell-based
How it was run: (§1)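 Modified NCCLS broth microdilution, samples serially diluted from 20 μg/mL top concentration, inocula per 0.5 McFarland (C. albicans in SDB or RPMI 1640; C. neoformans in SDB; A. fumigatus in YM broth or RPMI-1640 + 5% Alamar Blue). IC50 from percent growth versus concentration; MIC read visually as lowest concentration without detectable growth.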

[2] = test system: Cryptococcus neoformans ATCC 90113; assay: Antifungal susceptibility testing, Cryptococcus neoformans; type: cell-based
How it was run: as §1

[3] = test system: Aspergillus fumigatus ATCC 90906; assay: Antifungal susceptibility testing, Aspergillus fumigatus; type: cell-based; details: for IC50: ATCC90906, read-out: A fu IC50; for IC50 / A fu IC50: Aspergillus fumigatus
How it was run: as §1

[4] = test system: MRSA; assay: Antibacterial susceptibility testing, MRSA; type: cell-based, methicillin resistant Staphylococcus aureus; details: for IC50 / MFC / MIC: Staphylococcus aureus
How it was run: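 MRSA, sourced from the American Type Culture Collection, was tested for susceptibility with a modified National Committee for Clinical Laboratory Standards method. DMSO sample solutions were serially diluted in saline and placed in duplicate in 96 well microplates. Broth-diluted bacterial suspensions, standardized to 0.5 McFarland, brought each well to 200 μL, with the highest test concentration at 20 μg/mL.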

[5] = test system: Vero Cells; assay: Cytotoxicity, Vero cells; type: cell-based
[6] = ATTC90028, Table 1, read-out: Ca IC50
[7] = ATTC90028, Table 1, read-out: Ca MFC
[8] = ATTC90028, Table 1, read-out: Ca MIC
[9] = ATCC90113, Table 1, read-out: Cn IC50
[10] = ATCC90113, Table 1, read-out: Cn MFC
[11] = ATCC90113, Table 1, read-out: Cn MIC
[12] = ATTC90028, Table 3, read-out: Ca IC50
[13] = ATTC90028, Table 3, read-out: Ca MFC
[14] = ATTC90028, Table 3, read-out: Ca MIC
[15] = ATCC90113, Table 3, read-out: Cn IC50
[16] = ATCC90113, Table 3, read-out: Cn MFC
[17] = ATCC90113, Table 3, read-out: Cn MIC
[18] = ATTC90028, Table 2, read-out: Ca IC50
[19] = ATTC90028, Table 2, read-out: Ca MFC
[20] = ATTC90028, Table 2, read-out: Ca MIC
[21] = ATCC90113, Table 2, read-out: Cn IC50
[22] = ATCC90113, Table 2, read-out: Cn MFC
[23] = ATCC90113, Table 2, read-out: Cn MIC

Structure (SMILES): FC(F)(F)c1ccccc1Sc1cc2ccccc2[n+](CCCCCc2ccccc2)c1.[I-]
melting point: 227 to 229 °C

Structure (SMILES): C[n+]1cc2c(c3cc(C(F)(F)F)ccc3n2CCCCCC2CCCCC2)c2ccccc21.[I-] [JRE-4-17-1, 10-Trifluoromethyl-7-(5-cyclohexyl-pentyl)-5-methyl-7H-indolo[2,3-c]quinolin-5-ium iodide]
IC50 [1, 12]: 3.5 µg/mL
MFC [1, 13]: 10 µg/mL
MIC [1, 14]: 5 µg/mL
IC50 [2, 15]: 3 µg/mL
MFC [2, 16]: 5 µg/mL
MIC [2, 17]: 5 µg/mL
A fu MFC [3]: 10 µg/mL
A fu MIC [3]: 10 µg/mL
IC50 ([3]; Table 3): 3.5 µg/mL
IC50 ([4]; Table 3, read-out: MRSA IC50): 1.5 µg/mL
MFC ([4]; Table 3, read-out: MRSA MFC): 5 µg/mL
MIC ([4]; Table 3, read-out: MRSA MIC): 2.5 µg/mL
TC50 Vero Cells ([5]; Table 3): >10 µg/mL
melting point: 231 to 233 °C

Structure (SMILES): C[n+]1cc2c(c3ccc(Cl)cc3n2CCCCCC2CCCCC2)c2ccccc21.[I-] [JRE-3-84-1]
Ca IC50 ([1]; Table 3): 0.70 µg/mL
Ca MFC ([1]; Table 3): 2.5 µg/mL
Ca MIC ([1]; Table 3): 1.3 µg/mL
Cn IC50 ([2]; Table 3): 0.80 µg/mL
Cn MFC ([2]; Table 3): 2.5 µg/mL
Cn MIC ([2]; Table 3): 1.3 µg/mL
A fu MFC [3]: 5.0 µg/mL
A fu MIC [3]: 2.5 µg/mL
A fu IC50 ([3]; Table 3): 1.5 µg/mL
MRSA IC50 ([4]; Table 3): 0.80 µg/mL
MRSA MFC ([4]; Table 3): 1.3 µg/mL
MRSA MIC ([4]; Table 3): 1.3 µg/mL
TC50 Vero Cells ([5]; Table 3): >10 µg/mL

Structure (SMILES): Clc1ccc(Nc2cc3ccccc3[n+](CCCCCc3ccccc3)c2)cc1 [JRE-2-89-1]
IC50 [1, 18]: 15 µg/mL
MFC [1, 19]: > 20 µg/mL
MIC [1, 20]: 50 µg/mL
IC50 [2, 21]: 4 µg/mL
MFC [2, 22]: 13 µg/mL
MIC [2, 23]: 6.3 µg/mL
A fu MIC [3]: 50 µg/mL
IC50 ([3]; Table 2): 10 µg/mL
IC50 ([4]; Table 2, read-out: MRSA IC50): 1.5 µg/mL
MIC ([4]; Table 2, read-out: MRSA MIC): 3.1 µg/mL
TC50 Vero Cells ([5]; Table 2): >25 µg/mL
melting point: 182 to 183 °C

Structure (SMILES): C[n+]1cc(N(CCCCCC2CCCCC2)c2cccc(C(F)(F)F)c2)cc2ccccc21.[I-] [JRE-3-61-1]
Ca IC50 ([1]; Table 2): 1.0 µg/mL
Ca MFC ([1]; Table 2): 2.5 µg/mL
Ca MIC ([1]; Table 2): 2.5 µg/mL
Cn IC50 ([2]; Table 2): 0.85 µg/mL
Cn MFC ([2]; Table 2): 2.5 µg/mL
Cn MIC ([2]; Table 2): 1.3 µg/mL
A fu MFC [3]: 10 µg/mL
A fu MIC [3]: 2.5 µg/mL
A fu IC50 ([3]; Table 2): 1.5 µg/mL
MRSA IC50 ([4]; Table 2): 0.45 µg/mL
MRSA MFC ([4]; Table 2): 1.3 µg/mL
MRSA MIC ([4]; Table 2): 0.63 µg/mL
TC50 Vero Cells ([5]; Table 2): >10 µg/mL

The next lines start with results.

melting point: 156 to 158 °C
Structure (SMILES): c1ccc(Nc2cc3ccccc3[n+](CCCCCC3CCCCC3)c2)cc1 (as salt: iodide) [JRE-3-19-1]

IC50 [1, 6]: 15 µg/mL
MIC [1, 8]: > 20 µg/mL
IC50 [2, 9]: 0.95 µg/mL
MIC [2, 11]: 2.5 µg/mL
IC50 ([3]; Table 1): 7.5 µg/mL
IC50 ([4]; Table 1, read-out: MRS IC50): 0.8 µg/mL
MIC ([4]; Table 1, read-out: MRS MIC): 2.5 µg/mL
melting point: 167 to 168 °C
Structure (SMILES): FC(F)(F)c1cccc(Sc2cc3ccccc3[n+](CCCCC[n+]3cc(Sc4cccc(C(F)(F)F)c4)cc4ccccc43)c2)c1 [XYZ-IV-55]
MFC [1, 7]: > 20 µg/mL
MFC [2, 10]: 20 µg/mL
MFC ([4]; Table 1, read-out: MRS MFC): 10 µg/mL
TC50 Vero Cells ([5]; Table 1): NC (NC = Not toxic at 10 μg/mL)

IC50 [1, 6]: > 20 µg/mL
MIC [1, 8]: > 20 µg/mL
IC50 [2, 9]: 0.6 µg/mL
MIC [2, 11]: 2.5 µg/mL
A fu MIC [3]: 20 µg/mL
IC50 ([3]; Table 1): 9 µg/mL
IC50 ([4]; Table 1, read-out: MRS IC50): 0.95 µg/mL
MIC ([4]; Table 1, read-out: MRS MIC): 5 µg/mL
melting point: 175 to 176 °C
Structure (SMILES): FC(F)(F)c1ccccc1Sc1cc2ccccc2[n+](CCCCC[n+]2cc(Sc3ccccc3C(F)(F)F)cc3ccccc32)c1 [XYZ-IV-45]
MFC [1, 7]: > 20 µg/mL
MFC [2, 10]: 20 µg/mL
MFC ([4]; Table 1, read-out: MRS MFC): > 20 µg/mL
TC50 Vero Cells ([5]; Table 1): NC (NC = Not toxic at 10 μg/mL)

IC50 [1, 6]: > 20 µg/mL
MIC [1, 8]: > 20 µg/mL
IC50 [2, 9]: 4 µg/mL
MIC [2, 11]: 10 µg/mL
A fu MIC [3]: 10 µg/mL
IC50 ([3]; Table 1): 5 µg/mL
IC50 ([4]; Table 1, read-out: MRS IC50): 2 µg/mL
MIC ([4]; Table 1, read-out: MRS MIC): 5 µg/mL
melting point: 154 to 156 °C
Structure (SMILES): FC(F)(F)c1ccccc1Sc1cc2ccccc2[n+](CCCCC[n+]2c3ccccc3cc3[nH]c4ccccc4c32)c1 [XYZ-IV-52]
MFC [1, 7]: > 20 µg/mL
MFC [2, 10]: > 20 µg/mL
MFC ([4]; Table 1, read-out: MRS MFC): > 20 µg/mL
TC50 Vero Cells ([5]; Table 1): NC (NC = Not toxic at 10 μg/mL)

IC50 [1, 18]: 3.5 µg/mL
MIC [1, 20]: 10 µg/mL
IC50 [2, 21]: 1.5 µg/mL
MIC [2, 23]: 2.5 µg/mL
A fu MFC [3]: 1.3 µg/mL
A fu MIC [3]: 1.3 µg/mL
IC50 ([3]; Table 2): 0.9 µg/mL
IC50 ([4]; Table 2, read-out: MRSA IC50): 1.5 µg/mL
MIC ([4]; Table 2, read-out: MRSA MIC): 5 µg/mL
melting point: 124 to 125 °C
Structure (SMILES): C[n+]1cccc(N(CCCCCC2CCCCC2)c2ccccc2)c1 [JRE-4-1-1]
MFC [1, 19]: > 20 µg/mL
MFC [2, 22]: 5 µg/mL
TC50 Vero Cells ([5]; Table 2): 8.3 µg/mL

IC50 [1, 12]: 0.9 µg/mL
MIC [1, 14]: 1.6 µg/mL
IC50 [2, 15]: 0.9 µg/mL
MIC [2, 17]: 1.6 µg/mL
A fu MFC [3]: 25 µg/mL
A fu MIC [3]: 6.3 µg/mL
IC50 ([3]; Table 3): 2 µg/mL
IC50 ([4]; Table 3, read-out: MRSA IC50): 0.5 µg/mL
MIC ([4]; Table 3, read-out: MRSA MIC): 0.8 µg/mL
Structure (SMILES): C[n+]1cc2c(c3cc(Cl)ccc3n2CCCCCC2CCCCC2)c2ccccc21.[I-] [JRE-3-13-1, 10-Chloro-7-(5-cyclohexyl-pentyl)-5-methyl-7H-indolo[2,3-c]quinolin-5-ium iodide]
MFC [1, 13]: 1.6 µg/mL
MFC [2, 16]: 1.6 µg/mL
MFC ([4]; Table 3, read-out: MRSA MFC): 0.8 µg/mL
TC50 Vero Cells ([5]; Table 3): >10 µg/mL

IC50 [1, 18]: 0.8 µg/mL
MIC [1, 20]: 1.3 µg/mL
IC50 [2, 21]: 0.45 µg/mL
MIC [2, 23]: 0.63 µg/mL
A fu MFC [3]: 5.0 µg/mL
A fu MIC [3]: 1.3 µg/mL
IC50 ([3]; Table 2): 0.5 µg/mL
IC50 ([4]; Table 2, read-out: MRSA IC50): 0.45 µg/mL
MIC ([4]; Table 2, read-out: MRSA MIC): 0.63 µg/mL
Structure (SMILES): C[n+]1cc(N(CCCCCC2CCCCC2)c2ccsc2)cc2ccccc21 [EVK-II-091]
MFC [1, 19]: > 20 µg/mL
MFC [2, 22]: 5 µg/mL
TC50 Vero Cells ([5]; Table 2): >10 µg/mL
